Residues, ends and D or L forms follow the SMILES beside them.
Key:
[1] = tested on: mice with oxygen-induced retinopathy (OIR); test: oxygen-induced retinopathy (OIR) in mice; type: in vivo
Source text: The membrane was probed for TREM-1, reprobed for CSF1 and then for β-actin.

[2] = penetration of the blood-brain and blood-retinal barrier after systemic administration; type: in vivo; details: rhodamine B-labeled; mice intraperitoneally; rats and rabbits intravenously (G-KV21)
TREM-1 = target: T1, TREM-1 (Mus musculus, UniProt Q9JKE2); test: colocalization of labeled peptide with TREM-1 in the cell membrane (images); type: cell-based; details: GE31 delivered to macrophages by SLP, G-KV21 pre-incubated with HDL, J774 cells
T1 construct: BALB/c murine macrophage J774A.1 cells were grown at 37° C. in six-well tissue culture plates containing glass coverslips; endogenous in cells; host or cells: BALB/c murine macrophage cell line J774A.1 (ATCC)
T1 sequence (O54885 22-114 partner): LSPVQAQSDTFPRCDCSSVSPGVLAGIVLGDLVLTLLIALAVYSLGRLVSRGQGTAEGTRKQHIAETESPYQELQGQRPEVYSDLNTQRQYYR
T1 sequence (Q9JKE2 21-230): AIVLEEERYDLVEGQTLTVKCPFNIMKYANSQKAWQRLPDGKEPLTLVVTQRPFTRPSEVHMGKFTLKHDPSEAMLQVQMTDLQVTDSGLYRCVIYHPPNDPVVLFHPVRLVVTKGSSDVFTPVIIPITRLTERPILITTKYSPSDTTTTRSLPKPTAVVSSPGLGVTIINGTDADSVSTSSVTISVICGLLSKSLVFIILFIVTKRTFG

Structure (SMILES): CC(C)C[C@H](NC(=O)[C@H](Cc1ccccc1)NC(=O)CN)C(=O)N[C@@H](CO)C(=O)N[C@@H](CCCCN)C(=O)N[C@@H](CO)C(=O)N[C@@H](CC(C)C)C(=O)N[C@H](C(=O)N[C@@H](Cc1ccccc1)C(=O)N[C@@H](Cc1c[nH]c2ccccc12)C(=O)N[C@@H](CCC(N)=O)C(=O)N[C@@H](CCC(=O)O)C(=O)N[C@@H](CCC(=O)O)C(=O)N[C@@H](CC[S+](C)[O-])C(=O)N[C@@H](CCC(=O)O)C(=O)N[C@@H](CC(C)C)C(=O)N[C@@H](Cc1ccc(O)cc1)C(=O)N[C@@H](CCCNC(=N)N)C(=O)N[C@@H](CCC(N)=O)C(=O)N[C@@H](CCCCN)C(=O)N[C@H](C(=O)O)C(C)C)C(C)C (stereo partly shown) [G-KV21] (HELM PEPTIDE1{G.F.L.S.K.S.L.V.F.W.Q.E.E.[CS(=O)CC[C@H](N[*:1])C(=O)[*:2]].E.L.Y.R.Q.K.V}$$$$V2.0)
- pathological retinal neovascularization (RNV) ([1]; 25 mg/kg GF9, 2.5 mg/kg GF9-sSLP, 4 mg/kg GA/E31-sSLP where stated): significantly suppresses pathological RNV
- retinal tissue expression of TREM-1 and CSF-1 (M-CSF) ([1]; P17, Western blot): inhibits tissue expression of TREM-1 and M-CSF
- penetration of the BBB and BRB [2]: penetration of the BBB and BRB
- colocalization with TREM-1 in the cell membrane (TREM-1): colocalization
